Reference: patent US20040018500A1, “Methods and systems for analyzing complex biological systems” (priority 2001, published 2004)

Key:
[1] = system: Saccharomyces cerevisiae wild type strain BY4743; assay: AF1 combined gene expression and metabolite data mapped to KEGG reactions and pathways; format: cell-based
Description: In AF1, two different technologies were utilized: gene expression analysis (for examination of mRNA expression) and metabolite analysis. […] As noted previously, existing metabolic databases may be helpful in practicing the methods and systems of the present invention, but many databases include limitations that make their use in data analysis and pathway mapping less than straightforward. […] This caveat to KEGG makes it difficult to pinpoint the correct pathway when attempting to link a gene to a specific pathway. […] The pathway score indicates how meaningful the mapping is, or how likely it is to be correctly indicative of the pathway involved in the perturbation under examination. The method provides a pathway score based on perturbation levels of genes and/or compounds and the information content of each gene and/or compound in the pathway, i.e., a pathway score indicates the extent to which other pathways are mapped to a gene/compound. For example, imagine that two genes are perturbed in a particular experiment. One gene maps to only one pathway, giving a high degree of probability that the perturbed pathway is the one identified in the mapping. The second gene maps to three pathways. In the later example, there is only one-third the probability that the pathway identified in the mapping is the one perturbed. The present invention provides a method for calculating the pathway scores, so that more weight is given to a score of a gene or compound that maps to only one pathway than to a score of a gene or compound that maps to multiple pathways. […] Where n=the total number of genes in the pathway; ipath—count=the number of pathways containing a gene; and j=the number of genes in the pathway that are perturbed. Another factor to be considered when weighting a pathway score is the degree of perturbation. Degree of perturbation can be calculated, for example, based on a number of standard deviations from a norm, and included in an equation such as the one shown above, so that not only the number of pathways is taken into account, but also accounts for the amount of gene transcript or compound present as compared to a control. Compounds were also linked to pathways using the KEGG database. […] Of the 676 compounds under consideration, 77 were detected in the AF1 samples. […] The multiple mapping feature of KEGG makes it difficult to pinpoint the correct pathway when trying to link a compound to a specific pathway. […] A pathway score calculation is applied to the compounds to account for both information content (number of pathways a compound maps to) and perturbation level. The data were then combined to determine the number of reactions showing an enzyme and at least one compound perturbed, and to determine the number of pathways having at least one enzyme and one perturbed compound perturbed. The results of the analysis are represented in Tables 16 and 17, and were difficult to interpret, illustrating that the ability to draw conclusions from compound mapping to pathways is limited when absent additional data.

[2] = system: Saccharomyces cerevisiae wild type strain BY4743; assay: AF1 gene expression analysis (microarray) of yeast treated with antifungal drugs; format: cell-based; conditions: p < 0.05; KEGG pathway mapping
Description: Saccharomyces cerevisiae wild type strain BY4743 was purchased from American Type Culture Center (ATCC, Manassas, Va.). The yeast strain was grown in YPD or SD media. […] The cultures started from fresh single colonies were grown in 1.0 ml YPD overnight at 30° C. […] The OD600 was adjusted to 1.0 with YPD media, then 2.0 ml of each was inoculated into three 250 ml flasks, each containing 50 ml of SD media. […] The cells were kept growing for another two hours, then collected by centrifugation at 4000 rpm for 5 minutes at 4° C. Pellets were washed once with ice-cold water, then were lyophilized overnight at 4° C. […] RNA quality was determined using the Bioanalyzer 2100 and the RNA 6000 assay (Agilent Technologies, Palo Alto, Calif.) according to manufacturer's instructions. RNA concentrations were determined spectrophotometrically by measuring the absorption at 260 nm in an Ultrospec 2000 (Pharmacia Biotech, Piscataway, N.J.). […] Labeled cRNAs were evaluated using the RNA 6000 assay on the Agilent Bioanalyzer 2100. Labeled cRNA concentrations were determined spectrophotometrically by measuring the absorption at 260 nm in an Ultrospec 2000 (Pharmacia Biotech, Piscataway, N.J.). […] Each feature was determined from an array's associated pattern file and a detection algorithm. […] Data was evaluated after combining results from fluor reversal replicate hybridizations. […]

C[C@@H]1[C@H](O)[C@@H](C)/C=C/C=C/C=C/C=C/C=C/C=C/C=C/[C@H](O[C@@H]2O[C@H](C)[C@@H](O)[C@H](N)[C@@H]2O)C[C@@H]2O[C@](O)(C[C@@H](O)C[C@@H](O)[C@H](O)CC[C@@H](O)C[C@@H](O)CC(=O)O[C@H]1C)C[C@H](O)[C@H]2C(=O)O [Amphoteracin B]
Number Of Pathways Having at Least One Enzyme and One Compound Perturbed (# Reactions) [1]: 37
Number of Reactions Having an Enzyme and at Least One Compound Perturbed [1]: 54
# Pathways Affected by at Least One Gene [2]: 97
